US20240217957A1, “HETEROCYCLIC COMPOUND AND USE THEREOF” (TAKEDA PHARMACEUTICAL COMPANY LIMITED, priority 2022, published 2024)

Biological target: T1, human OX2 receptor (Homo sapiens, UniProt O43614)
T1 construct: expressed in transfected cells
T1 sequence (O43614 1-444): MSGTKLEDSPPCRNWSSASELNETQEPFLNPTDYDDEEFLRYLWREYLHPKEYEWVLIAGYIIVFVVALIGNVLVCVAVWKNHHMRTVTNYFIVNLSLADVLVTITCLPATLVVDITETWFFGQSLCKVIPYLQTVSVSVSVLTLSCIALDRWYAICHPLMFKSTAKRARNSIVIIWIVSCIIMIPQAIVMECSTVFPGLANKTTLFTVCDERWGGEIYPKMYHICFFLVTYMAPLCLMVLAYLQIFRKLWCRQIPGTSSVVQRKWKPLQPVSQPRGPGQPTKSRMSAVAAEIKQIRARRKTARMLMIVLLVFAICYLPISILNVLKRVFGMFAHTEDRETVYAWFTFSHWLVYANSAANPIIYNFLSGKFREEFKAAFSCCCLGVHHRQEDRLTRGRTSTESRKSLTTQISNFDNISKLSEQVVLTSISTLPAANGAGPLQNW
Experiment: Measurement of orexin type 2 receptor agonist activity (calcium fluorescence, Fluo-4 AM, FDSS)
Assay type: cell-based
Settings: compound at 3 μM; CHO cells forcibly expressing human OX2 receptor; DMSO = 0%, 10 nM orexin A (human) = 100%
Protocol: In order to obtain cell clones that stably express human orexin type 2 receptor, human orexin type 2 (residues 1-444, NCBI Reference Sequence: AK314279) was constructed in a pcDNA3.1 (+) vector (Invitrogen) to express in mammalian cells. This plasmid DNA was transfected into CHO-K1 cells by electroporation, and stable clones were obtained by limiting dilution using resistance to G418 as a selection marker.
CHO cells in which human OX2 receptor was forcibly expressed were seeded at 10,000 cells/well into a 384-well black transparent bottom plate (BD falcon), and were incubated at 37° C., 5% CO2 for 1 day after incubation at room temperature for 30 minutes. After removing the cell plate medium, assay buffer containing calcium indicator A (HBSS (Thermo Fisher Scientific), 20 mM HEPES (Thermo Fisher Scientific), 0.1% BSA (Sigma-Aldrich), 2.5 μg/mL Fluo-4 AM (Dojin Kagaku), 0.08% Pluronic F127 (Dojin Kagaku), 1.25 mM probenecid (Dojin Kagaku)) was added at 30 μL/well. After incubation in a 5% CO2 incubator at 37° C. for 30 minutes, it was incubated at room temperature for another 30 minutes. Add 10 μL/well of the test compound diluted with assay buffer B (HBSS, 20 mM HEPES, 0.1% BSA), and use FDSS uCELL (Hamamatsu Photonics) to measure the fluorescence value every 1 second for 1 minute, and then every 2 seconds for […]. It was measured for 1 minute and 40 seconds. The amount of fluorescence value when DMSO is added instead of the test compound is defined as 0%, and the amount of fluorescence value when orexin A (human) (Peptide Institute) with a final concentration of 10 nM is added is defined as 100%. The activity (%) of the test compound was calculated.

SMILES | OX2R agonist activity (3 μM, %)
CCS(=O)(=O)N[C@@H]1CN(C2=NOC(c3ncc(F)cc3-c3c(F)cc(F)cc3F)C2)CC1(F)F (stereo partly drawn) [Example 34, N-[(3R)-4,4-difluoro-1-{5-[5-fluoro-3-(2,4,6-trifluorophenyl)pyridin-2-yl]-4,5-dihydro-1,2-oxazol-3-yl}pyrrolidin-3-yl]ethanesulfonamide] | 105%
Cc1cnc([C@@H]2CC(N3CC[C@H](NS(=O)(=O)CF)C3)=NO2)c(-c2c(F)cccc2F)c1 [Example 38, N-[(3S)-1-{(5S)-5-[3-(2,6-difluorophenyl)-5-methylpyridin-2-yl]-4,5-dihydro-1,2-oxazol-3-yl}pyrrolidin-3-yl]-1-fluoromethanesulfonamide] | 104%
CS(=O)(=O)N[C@@H]1CN(C2=NOC(c3ncc(Cl)cc3-c3c(F)cc(F)cc3F)C2)CC1(F)F (stereo partly drawn) [Example 39, N-[(3R)-1-{5-[5-chloro-3-(2,4,6-trifluorophenyl)pyridin-2-yl]-4,5-dihydro-1,2-oxazol-3-yl}-4,4-difluoropyrrolidin-3-yl]methanesulfonamide] | 97%
CS(=O)(=O)N[C@@H]1CN(C2=NOC(c3ncc(Br)cc3-c3c(F)cc(F)cc3F)C2)CC1(F)F (stereo partly drawn) [Example 40, N-[(3R)-1-{5-[5-bromo-3-(2,4,6-trifluorophenyl)pyridin-2-yl]-4,5-dihydro-1,2-oxazol-3-yl}-4,4-difluoropyrrolidin-3-yl]methanesulfonamide] | 103%
CCS(=O)(=O)N[C@@H]1CN(C2=NO[C@H](c3ncc(Br)cc3-c3c(F)cc(F)cc3F)C2)CC1(F)F [Example 43, N-[(3R)-1-{5-[5-bromo-3-(2,4,6-trifluorophenyl)pyridin-2-yl]-4,5-dihydro-1,2-oxazol-3-yl}-4,4-difluoropyrrolidin-3-yl]ethanesulfonamide] | 103%
Cc1cnc([C@@H]2CC(N3CC[C@H](NS(C)(=O)=O)C3)=NO2)c(-c2c(F)cc(F)cc2F)c1 [Example 45, N-[(3S)-1-{(5S)-5-[5-methyl-3-(2,4,6-trifluorophenyl)pyridin-2-yl]-4,5-dihydro-1,2-oxazol-3-yl}pyrrolidin-3-yl]methanesulfonamide] | 101%
Cc1cnc([C@@H]2CC(N3CC[C@H](NS(=O)(=O)C4(F)CC4)C3)=NO2)c(-c2c(F)cc(F)cc2F)c1 [Example 46, 1-fluoro-N-[(3S)-1-{(5S)-5-[5-methyl-3-(2,4,6-trifluorophenyl)pyridin-2-yl]-4,5-dihydro-1,2-oxazol-3-yl}pyrrolidin-3-yl]cyclopropane-1-sulfonamide] | 99%
Cc1cnc([C@@H]2CC(N3C[C@@H](F)[C@H](NS(C)(=O)=O)C3)=NO2)c(-c2c(F)cc(F)cc2F)c1 [Example 48, N-[(3R,4R)-4-fluoro-1-{(5S)-5-[5-methyl-3-(2,4,6-trifluorophenyl)pyridin-2-yl]-4,5-dihydro-1,2-oxazol-3-yl}pyrrolidin-3-yl]methanesulfonamide] | 94%
CS(=O)(=O)N[C@@H]1CN(C2=NOC(c3ncc(Cl)cc3-c3c(F)cccc3F)C2)CC1(F)F (stereo partly drawn) [Example 49, N-[(3R)-1-{5-[5-chloro-3-(2,6-difluorophenyl)pyridin-2-yl]-4,5-dihydro-1,2-oxazol-3-yl}-4,4-difluoropyrrolidin-3-yl]methanesulfonamide] | 95%
Cc1ccc([C@@H]2CC(N3CC[C@H](NS(C)(=O)=O)C3)=NO2)c(-c2ncc(F)cc2F)c1 [Example 50, N-[(3S)-1-{5-[2-(3,5-difluoropyridin-2-yl)-4-methylphenyl]-4,5-dihydro-1,2-oxazol-3-yl}pyrrolidin-3-yl]methanesulfonamide] | 99%
CS(=O)(=O)N[C@@H]1CN(C2=NOC(c3ncc(Br)cc3-c3c(F)cccc3F)C2)CC1(F)F (stereo partly drawn) [Example 52, N-[(3R)-1-{5-[5-bromo-3-(2,6-difluorophenyl)pyridin-2-yl]-4,5-dihydro-1,2-oxazol-3-yl}-4,4-difluoropyrrolidin-3-yl]methanesulfonamide] | 93%
Cc1cnc([C@@H]2CC(N3C[C@@H](NS(C)(=O)=O)C(F)(F)C3)=NO2)c(-c2c(F)ccc(F)c2F)c1 [Example 54, N-[(3R)-4,4-difluoro-1-{5-[5-methyl-3-(2,3,6-trifluorophenyl)pyridin-2-yl]-4,5-dihydro-1,2-oxazol-3-yl}pyrrolidin-3-yl]methanesulfonamide] | 92%

Results, then the compound that gave them:

OX2R agonist activity (3 μM, %) | SMILES
102% | Cc1cnc([C@@H]2CC(N3C[C@@H](NS(=O)(=O)C4CC4)C(F)(F)C3)=NO2)c(-c2c(F)cccc2F)c1 [Example 33, N-[(3R)-1-{(5S)-5-[3-(2,6-difluorophenyl)-5-methylpyridin-2-yl]-4,5-dihydro-1,2-oxazol-3-yl}-4,4-difluoropyrrolidin-3-yl]cyclopropanesulfonamide]
92% | CN(C)S(=O)(=O)N[C@H]1CCN(C2=NOC(c3ncccc3-c3c(F)cc(F)cc3F)C2)C1 (stereo partly drawn) [Example 35, N,N-dimethyl-N′-[(3S)-1-{5-[3-(2,4,6-trifluorophenyl)pyridin-2-yl]-4,5-dihydro-1,2-oxazol-3-yl}pyrrolidin-3-yl]sulfuric diamide]
103% | O=S(=O)(CF)N[C@H]1CCN(C2=NOC(c3ncc(F)cc3-c3c(F)cc(F)cc3F)C2)C1 (stereo partly drawn) [Example 36, 1-fluoro-N-[(3S)-1-{5-[5-fluoro-3-(2,4,6-trifluorophenyl)pyridin-2-yl]-4,5-dihydro-1,2-oxazol-3-yl}pyrrolidin-3-yl]methanesulfonamide]
103% | Cc1cnc([C@@H]2CC(N3CC[C@H](NS(=O)(=O)C(F)F)C3)=NO2)c(-c2c(F)cccc2F)c1 [Example 37, N-[(3S)-1-{(5S)-5-[3-(2,6-difluorophenyl)-5-methylpyridin-2-yl]-4,5-dihydro-1,2-oxazol-3-yl}pyrrolidin-3-yl]-1,1-difluoromethanesulfonamide]
107% | CS(=O)(=O)N[C@@H]1CN(C2=NOC(c3ncc(C(F)F)cc3-c3c(F)cc(F)cc3F)C2)CC1(F)F (stereo partly drawn) [Example 41, N-[(3R)-1-{5-[5-(difluoromethyl)-3-(2,4,6-trifluorophenyl)pyridin-2-yl]-4,5-dihydro-1,2-oxazol-3-yl}-4,4-difluoropyrrolidin-3-yl]methanesulfonamide]
100% | CCS(=O)(=O)N[C@@H]1CN(C2=NOC(c3ncc(Cl)cc3-c3c(F)cc(F)cc3F)C2)CC1(F)F (stereo partly drawn) [Example 42, N-[(3R)-1-{5-[5-chloro-3-(2,4,6-trifluorophenyl)pyridin-2-yl]-4,5-dihydro-1,2-oxazol-3-yl}-4,4-difluoropyrrolidin-3-yl]ethanesulfonamide]
95% | Cc1cnc([C@@H]2CC(N3C[C@@H](F)[C@H](NS(C)(=O)=O)C3)=NO2)c(-c2c(F)cccc2F)c1 [Example 44, N-[(3R,4R)-1-{(5S)-5-[3-(2,6-difluorophenyl)-5-methylpyridin-2-yl]-4,5-dihydro-1,2-oxazol-3-yl}-4-fluoropyrrolidin-3-yl]methanesulfonamide]
93% | CCS(=O)(=O)N[C@@H]1CN(C2=NO[C@H](c3ncc(C)cc3-c3c(F)cc(F)cc3F)C2)CC1(F)F [Example 47, N-[(3R)-4,4-difluoro-1-{(5S)-5-[5-methyl-3-(2,4,6-trifluorophenyl)pyridin-2-yl]-4,5-dihydro-1,2-oxazol-3-yl}pyrrolidin-3-yl]ethanesulfonamide]
98% | Cc1cnc([C@@H]2CC(N3C[C@@H](NS(C)(=O)=O)C(F)(F)C3)=NO2)c(-c2c(F)cc(Cl)cc2F)c1 [Example 53, N-[(3R)-1-{5-[3-(4-chloro-2,6-difluorophenyl)-5-methylpyridin-2-yl]-4,5-dihydro-1,2-oxazol-3-yl}-4,4-difluoropyrrolidin-3-yl]methanesulfonamide]
104% | Cc1cnc([C@@H]2CC(N3C[C@@H](NS(=O)(=O)C4CC4)C(F)(F)C3)=NO2)c(-c2c(F)cc(F)cc2F)c1 [Example 55, N-[(3R)-4,4-difluoro-1-{(5S)-5-[5-methyl-3-(2,4,6-trifluorophenyl)pyridin-2-yl]-4,5-dihydro-1,2-oxazol-3-yl}pyrrolidin-3-yl]cyclopropanesulfonamide]
